This note sets out measurements from patent US20230095520A1, “PHARMACEUTICAL COMPOSITION FOR PREVENTING OR TREATING CANCER COMPRISING AZOLE DERIVATIVES OR PHARMACEUTICALLY ACCEPTABLE SALT THEREOF” (Yungjin Pharm. Co., Ltd., priority 2020, published 2023).

The assay concerns MV-4-11 cells. The experiment in a line: MV-4-11 cell proliferation inhibition (CCK-8). In kind it is cell-based. The conditions noted are these: Homo sapiens, 72 hours; for inhibition at 0.1 µM: MV4-11, MV-4-11, compound concentration 100 nM, read-out: Inhibition rate (%); for IC50: MV4-11, MV-4-11 proliferation. As to the method:
MV-4-11 cells are one of the acute myeloid leukemia cells with a Fms-like tyrosine kinase (FLT3) gene mutation, and these cells are used to test inhibition of proliferation and survival of leukemia cells.
MV-4-11 cells cultured in a 96-well cell culture plate were treated with the compound of the present invention and cultured for 72 hours. Thereafter, the antiproliferative effect of the compound was assayed by the CCK-8 method using a tetrazolium salt.

For `C=CC(=O)Nc1cnc(-c2cncc(C(C)C(=O)Nc3ncc(C#N)s3)c2)cn1` (centres unmarked) [Compound 44, N-(5-(5-(1-((5-cyanothiazol-2-yl)amino)-1-oxopropan-2-yl)pyridin-3-yl)pyrazin-2-yl)acrylamide], the inhibition at 0.1 µM turned out to be 100% and the IC50 was determined as 54.4 nM. On to `C=CC(=O)Nc1cnc(-c2cccc([C@H](C)C(=O)Nc3ncc(C#N)s3)c2)cn1` [Compound 25, (S)-N-(5-(3-(1-((5-cyanothiazol-2-yl)amino)-1-oxopropan-2-yl)phenyl)pyrazin-2-yl)acrylamide], for which the inhibition at 0.1 µM was found to be 100%. Take `C=CC(=O)Nc1ccc(-c2cccc([C@H](C)C(=O)Nc3ncc(C(C)C)s3)c2)nn1` [Compound 40, (S)-N-(6-(3-(1-((5-isopropylthiazol-2-yl)amino)-1-oxopropan-2-yl)phenyl)pyridazin-3-yl)acrylamide]: the inhibition at 0.1 µM was found to be 100% and the IC50 came to 27.8 nM. For the compound `C=CC(=O)Nc1ccc(-c2cccc([C@H](C)C(=O)Nc3ncc(C(F)(F)F)s3)c2)nn1` [Compound 39, (S)-N-(6-(3-(1-oxo-1-((5-(trifluoromethyl)thiazol-2-yl)amino)propan-2-yl)phenyl)pyridazin-3-yl)acrylamide], the inhibition at 0.1 µM stood at 100% and the IC50 came out at 30 nM. On to `C=CC(=O)Nc1cnc(-c2cncc(C(C)C(=O)Nc3ncc(Cl)s3)c2)cn1` (centres unmarked) [Compound 61, N-(5-(5-(1-((5-chlorothiazol-2-yl)amino)-1-oxopropan-2-yl)pyridin-3-yl)pyrazin-2-yl)acrylamide], for which the IC50 worked out at 9.1 nM. In the case of `C=CC(=O)Nc1ccc(-c2cccc([C@H](C)C(=O)Nc3ncc(C#N)s3)c2)cn1` [Compound 18, (S)-N-(5-(3-(1-((5-cyanothiazol-2-yl)amino)-1-oxopropan-2-yl)phenyl)pyridin-2-yl)acrylamide], the inhibition at 0.1 µM was determined as 67%. Regarding `C=CC(=O)Nc1ccc(-c2cncc(C(C)C(=O)Nc3ncc(C#N)s3)c2)cn1` (centres unmarked) [Compound 41, N-(5′-(1-((5-cyanothiazol-2-yl)amino)-1-oxopropan-2-yl)-[3,3′-bipyridin]-6-yl)acrylamide], the inhibition at 0.1 µM amounted to 100%. The same measure, in the same setting: with `C=CC(=O)Nc1ccc(-c2cccc([C@H](C)C(=O)Nc3ncc(C(F)(F)F)s3)c2)cn1` [Compound 38, (S)-N-(5-(3-(1-oxo-1-((5-(trifluoromethyl)thiazol-2-yl)amino)propan-2-yl)phenyl)pyridin-2-yl)acrylamide] the figure was 98%. `C=CC(=O)Nc1cnc(-c2cncc(C(C)C(=O)Nc3ncc(SC)s3)c2)cn1` (centres unmarked) [Compound 71, N-(5-(5-(1-((5-(methylthio)thiazol-2-yl)amino)-1-oxopropan-2-yl)pyridin-3-yl)pyrazin-2-yl)acrylamide] displayed an IC50 of 3.2 nM.

For `C=CC(=O)Nc1cnc(-c2cncc(C(C)C(=O)Nc3ncc(C4CC4)s3)c2)cn1` (centres unmarked) [Compound 43, N-(5-(5-(1-((5-cyclopropylthiazol-2-yl)amino)-1-oxopropan-2-yl)pyridin-3-yl)pyrazin-2-yl)acrylamide], the inhibition at 0.1 µM was determined as 100% and the IC50 turned out to be 24.6 nM.

As for `C=CC(=O)Nc1cnc(-c2cncc(C(C)C(=O)Nc3ncc(CC)s3)c2)cn1` (centres unmarked) [Compound 46, N-(5-(5-(1-((5-ethylthiazol-2-yl)amino)-1-oxopropan-2-yl)pyridin-3-yl)pyrazin-2-yl)acrylamide], the inhibition at 0.1 µM turned out to be 100% and the IC50 is 9.1 nM. With `C=CC(=O)Nc1cnc(-c2cncc(C(C)C(=O)Nc3ncc(C(C)C)s3)c2)cn1` (centres unmarked) [Compound 47, N-(5-(5-(1-((5-isopropylthiazol-2-yl)amino)-1-oxopropan-2-yl)pyridin-3-yl)pyrazin-2-yl)acrylamide], the inhibition at 0.1 µM is 100% and half-maximal inhibition (IC50) required 12.2 nM. For `C=CC(=O)Nc1ccc(-c2cc(C(C)C(=O)Nc3ncc(C4CC4)s3)ccn2)cn1` (centres unmarked) [Compound 50, N-(4-(1-((5-cyclopropylthiazol-2-yl)amino)-1-oxopropan-2-yl)-[2,3′-bipyridin]-6′-yl)acrylamide], the inhibition at 0.1 µM was 100% and half-maximal inhibition (IC50) was put at 17.2 nM.

In turn, `C=CC(=O)Nc1cnc(-c2cncc(C(C)C(=O)Nc3ncc(OC)s3)c2)cn1` (centres unmarked) [Compound 66, N-(5-(5-(1-((5-methoxythiazol-2-yl)amino)-1-oxopropan-2-yl)pyridin-3-yl)pyrazin-2-yl)acrylamide] returned an IC50 of 22.8 nM. Turning to `C=CC(=O)Nc1cnc(-c2cncc(C(C)C(=O)Nc3ncc(C(C)=O)s3)c2)cn1` (centres unmarked) [Compound 48, N-(5-(5-(1-((5-acetylthiazol-2-yl)amino)-1-oxopropan-2-yl)pyridin-3-yl)pyrazin-2-yl)acrylamide], the inhibition at 0.1 µM was determined as 100%. For the compound `C=CC(=O)Nc1ccc(-c2cccc([C@H](C)C(=O)Nc3ncc(C#N)s3)c2)nn1` [Compound 32, (S)-N-(6-(3-(1-((5-cyanothiazol-2-yl)amino)-1-oxopropan-2-yl)phenyl)pyridazin-3-yl)acrylamide], the inhibition at 0.1 µM came out at 100%. Same read-out and setting: with `C=CC(=O)Nc1ccc(-c2cc(C(C)C(=O)Nc3ncc(C#N)s3)ccn2)cn1` (centres unmarked) [Compound 42, N-(4-(1-((5-cyanothiazol-2-yl)amino)-1-oxopropan-2-yl)-[2,3′-bipyridin]-6′-yl)acrylamide] the figure was 100%; with `C=CC(=O)Nc1ccc(-c2cccc([C@H](CC)C(=O)Nc3ncc(CC)s3)c2)cn1` [Compound 19, (S)-2-(3-(6-acrylamidopyridin-3-yl)phenyl)-N-(5-ethylthiazol-2-yl)butanamide], 75%; with `C=CC(=O)Nc1ccc(-c2cccc([C@H](C)C(=O)Nc3ncc(CC)s3)c2)cc1C#N` [Compound 30, (S)-N-(3-cyano-3′-(1-((5-ethylthiazol-2-yl)amino)-1-oxopropan-2-yl)-[1,1′-biphenyl]-4-yl)acrylamide], 96%. Same read-out and setting: with `C=CC(=O)Nc1cnc(-c2cccc([C@H](C)C(=O)Nc3ncc(C(C)C)s3)c2)cn1` [Compound 36, (S)-N-(5-(3-(1-((5-isopropylthiazol-2-yl)amino)-1-oxopropan-2-yl)phenyl)pyrazin-2-yl)acrylamide] the figure was 100%; with `C=CC(=O)Nc1ccc(-c2cccc([C@H](C)C(=O)Nc3ncc(C(C)C)s3)c2)cn1` [Compound 35, (S)-N-(5-(3-(1-((5-isopropylthiazol-2-yl)amino)-1-oxopropan-2-yl)phenyl)pyridin-2-yl)acrylamide], 98%.

As for `C=CC(=O)Nc1ccc(-c2cccc(C(C)C(=O)Nc3ncc(C)s3)c2)cn1` (centres unmarked) [Compound 1, N-(5-(3-(1-((5-methylthiazol-2-yl)amino)-1-oxopropan-2-yl)phenyl)pyridin-2-yl)acrylamide], the inhibition at 0.1 µM is 80%. Turning to `C=CC(=O)Nc1ccc(-c2cccc([C@H](C)C(=O)Nc3ncc(CC)s3)c2)c(F)n1` [Compound 31, (S)-N-(5-(3-(1-((5-ethylthiazol-2-yl)amino)-1-oxopropan-2-yl)phenyl)-6-fluoropyridin-2-yl)acrylamide], the inhibition at 0.1 µM came to 98%.

Turning to `C=CC(=O)Nc1ccc(-c2cncc(C(C)C(=O)Nc3ncc(C(F)(F)F)s3)c2)nn1` (centres unmarked) [Compound 49, N-(6-(5-(1-oxo-1-((5-(trifluoromethyl)thiazol-2-yl)amino)propan-2-yl)pyridin-3-yl)pyridazin-3-yl)acrylamide], the inhibition at 0.1 µM was 100% and inhibition was half-maximal at 18.7 nM (IC50).

A word on the inhibition: it is the share of the control response that was lost under treatment. The term IC50 denotes the concentration that gives 50% inhibition. Higher therefore signals weaker potency.
